Source: US10800741B2 (ANCUREALL PHARMACEUTICAL (SHANGHAI) CO., LTD., priority 2017, dated 2020)
Read-outs that look alike come from different tables or passages of the source.

Experiments:
Type in all cases: cell-based, Human
H1703 (PDGFRa amp) = assay: In vitro growth inhibition of H1703 tumor cells (MTT/CCK8); conditions: Homo sapiens
Description: (§1) Tumor cell lines are an effective model for studying in vitro tumor growth inhibition. In the present invention, a representative tumor cell line was selected to determine the cell growth inhibition activity of the present compound. All cell lines used were from ATCC, DSMZ, and cell banks of the Chinese Academy of Sciences. Cell culture conditions and methods were in accordance with the requirements of each cell line. Cells were subcultured in vitro for no more than 3 generations each time, and as required, single-clone purification and identification of cell lines could be carried out.
(§2) The cell culture media used were RPMI1640 (Gibco), DMEM (Gibco), MEM (Gibco), L15 (Gibco), IMDM (Gibco), McCOY'S5A, and William's (Gibco). 5-20% fetal bovine serum (Gibco), 1% double antibiotic, 2 mM glutamine, or 1 mM sodium pyruvate were added. The names, species, major gene characteristics, culture media and cell sources of the cell lines used are shown in table 1, wherein “amp” refers to gene amplification. “+++” refers to gene overexpression. The main genetic characteristics of cells were obtained from the COSMIC Cell Lines Project and related research papers, respectively.
(§3) Adherent cells were digested with 0.25% trypsin-EDTA (Gibco). Suspension culture cells were collected by centrifugation (1700 rpm, 3 minutes). The supernatant was discarded and the cells were counted. According to each cell growth cycle, different concentrations of cells were prepared (5˜10×10^4 cells per ml), and inoculated to 96-well plates (Corning), with 100 μl per well, and incubated overnight at 37° C., 5% CO2. The next day, the test compound was added to the cultured cells (2 wells in parallel). The final concentration of the solvent was less than 1/1,000. The cells were further cultured for 3 to 5 days and assayed by MTT.
(§4) The compound was stored at a concentration of 10 mM at −20° C. and diluted to 2- or 10-fold series prior to use. BGJ398 and AC220 were synthesized according to the methods of WO2006420A1 and US2007232604A1, respectively.
(§5) The adherent cells were taken out from the cell culture medium, and immediately added to a freshly prepared complete medium containing 10% CCK8 (5% FBS), 100 ul per hole. The suspended cells were directly added to a CCK8 reagent until reaching a final concentration of 10% and cultured for 1 to 4 hours.
(§6) T=optical density of drug-treated cell wells−optical density of blank control wells; T0=optical density of cell wells before drug treatment−optical density of blank control wells; C=optical density of solvent control wells−optical density of blank control wells. […] The experiments were repeated 1 to 3 times and a statistical analysis of data was conducted.

Hep3B2 (FGFR3/4+++) = assay: In vitro growth inhibition of Hep3B2 tumor cells (MTT/CCK8); conditions: Homo sapiens, Hep3B, read-out: IC50 Hep3B2 (FGFR3/4+++)
Description: as §1, §2, §3, §4, §5, §6

H1581 (FGFR1 amp) = assay: In vitro growth inhibition of H1581 tumor cells (MTT/CCK8); conditions: Homo sapiens
KATO III (FGFR2 amp) = assay: In vitro growth inhibition of KATO III tumor cells (MTT/CCK8); conditions: Homo sapiens, KATO III, read-out: IC50 KATO III (FGFR2 amp)
Kasumi-1 (KIT N822K) = assay: In vitro growth inhibition of Kasumi-1 tumor cells (MTT/CCK8); conditions: Homo sapiens
Description: as §1, §2, §3, §4, §5, §6

Karpas 299 (NPM-ALK) = assay: In vitro growth inhibition of Karpas 299 tumor cells (MTT/CCK8); conditions: Homo sapiens
Description: as §1, §2, §3, §4, §5, §6

MOLM-13 (FLT3-ITD) = assay: In vitro growth inhibition of MOLM-13 tumor cells (MTT/CCK8); conditions: Homo sapiens
KCL-22 (BCR-ABL) = assay: In vitro growth inhibition of KCL-22 tumor cells (MTT/CCK8); conditions: Homo sapiens
Description: as §1, §2, §3, §4, §5, §6

[1] = NCI-H1703, in vitro growth inhibition (or induction of apoptosis), cells cultured 3 to 5 days, MTT (CCK8), read-out: IC50 H1703 (PDGFRa amp)
[2] = in vitro growth inhibition (or induction of apoptosis), cells cultured 3 to 5 days, MTT (CCK8)
[3] = NCI-H1581, in vitro growth inhibition (or induction of apoptosis), cells cultured 3 to 5 days, MTT (CCK8), read-out: IC50 H1581 (FGFR1 amp)
[4] = Kasumi 1, in vitro growth inhibition (or induction of apoptosis), cells cultured 3 to 5 days, MTT (CCK8), read-out: IC50 Kasumi-1 (KIT N822K)
[5] = KARPAS-299, in vitro growth inhibition (or induction of apoptosis), cells cultured 3 to 5 days, MTT (CCK8), read-out: IC50 Karpas 299 (NPM-ALK)
[6] = MOLM-13, in vitro growth inhibition (or induction of apoptosis), cells cultured 3 to 5 days, MTT (CCK8), read-out: IC50 MOLM-13 (FLT3-ITD)
[7] = KCL-22, in vitro growth inhibition (or induction of apoptosis), cells cultured 3 to 5 days, MTT (CCK8), read-out: IC50 KCL-22 (BCR-ABL)

SMILES	IC50 (H1703 (PDGFRa amp); NCI-H1703, read-out: IC50 H1703 (PDGFRa amp)) [µM]	IC50 (Hep3B2 (FGFR3/4+++)) [µM]	IC50 (H1581 (FGFR1 amp); NCI-H1581, read-out: IC50 H1581 (FGFR1 amp)) [µM]	IC50 (KATO III (FGFR2 amp)) [µM]	IC50 (Kasumi-1 (KIT N822K); Kasumi 1, read-out: IC50 Kasumi-1 (KIT N822K)) [µM]	IC50 (Karpas 299 (NPM-ALK); KARPAS-299, read-out: IC50 Karpas 299 (NPM-ALK)) [µM]	IC50 (MOLM-13 (FLT3-ITD); MOLM-13, read-out: IC50 MOLM-13 (FLT3-ITD)) [µM]	IC50 (KCL-22 (BCR-ABL); KCL-22, read-out: IC50 KCL-22 (BCR-ABL)) [µM]	IC50 (H1703 (PDGFRa amp); [1]) [µM]	IC50 (Hep3B2 (FGFR3/4+++); [2]) [µM]	IC50 (H1581 (FGFR1 amp); [3]) [µM]	IC50 (KATO III (FGFR2 amp); [2]) [µM]	IC50 (Kasumi-1 (KIT N822K); [4]) [µM]	IC50 (Karpas 299 (NPM-ALK); [5]) [µM]	IC50 (MOLM-13 (FLT3-ITD); [6]) [µM]	IC50 (KCL-22 (BCR-ABL); [7]) [µM]
CNC(=O)c1cc2c(Oc3ccc(NC(=O)n4nc(C(C)(C)C)cc4N)c(Cl)c3)ccnc2cc1OC [Compound 72]	0.25	0.159	0.165	0.00618	0.137	0.736	0.0508	0.117	–	–	–	–	–	–	–	–
COc1cc2nccc(Oc3ccc(NC(=O)Nc4cc(C(C)(C)C)on4)c(C)c3)c2cc1C(N)=O [Compound 6, 4-{4-[3-(5-tert-butyl-isoxazol-3-yl)-ureido]-3-methyl-phenoxy}-7-methoxyquinolin-6-carboxamide]	–	–	–	–	–	–	–	–	0.0156	0.0453	0.0106	0.00286	0.0261	0.689	0.0209	0.0178
C=CC(=O)n1nc(C(C)(C)C)cc1NC(=O)Nc1ccc(Oc2ccnc3cc(OC)c(C(N)=O)cc23)cc1Cl [Compound 28, 4-{4-[3-(2-acryloyl-5-tert-butyl-2H-pyrazol-3-yl)-ureido]-3-chloro-phenoxy}-7-methoxyquinolin-6-carboxamide]	–	–	–	–	–	–	–	–	0.0171	0.0242	0.0174	0.00073	0.0325	0.698	0.00653	0.0251
CC(C)(C)c1cc(NC(=O)Nc2ccc(Oc3cc(C(F)(F)F)nc4ccccc34)cc2Cl)no1 [Compound 115, 1-(5-tert-butyl-isoxazol-3-yl)-3-[2-chloro-4-(2-trifluoromethyl-quinolin-4-yloxy)-phenyl]-urea]	–	–	–	–	–	–	–	–	> 1	> 1	> 1	0.746	> 1	> 1	> 1	> 5
COc1cc2nccc(Oc3ccc(NC(=O)Nc4cc(C(C)(C)C)n[nH]4)c(C)c3)c2cc1C(N)=O [Compound 34, 4-{4-[3-(5-tert-butyl-2H-pyrazol-3-yl)-ureido]-3-methyl-phenoxy}-7-methoxyquinolin-6-carboxamide]	–	–	–	–	–	–	–	–	0.0881	0.0964	0.0575	0.00162	0.135	0.641	0.0146	0.0982
COCCNC(=O)c1cc2c(Oc3ccc(NC(=O)Nc4cc(C(C)(C)C)n[nH]4)c(Cl)c3)ccnc2cc1OC [Compound 62, 4-{4-[3-(5-tert-butyl-2H-pyrazol-3-yl)-ureido]-3-chloro-phenoxy}-7-methoxyquinolin-6-carboxylic acid (2-methoxy-ethyl)-amide]	–	–	–	–	–	–	–	–	0.0931	0.0732	0.0137	0.00189	0.0475	0.311	0.00783	0.0258
COc1cc2nccc(Oc3ccc(NC(=O)Nc4cc(C(C)(C)C)n[nH]4)cc3C(C)C)c2cc1C(N)=O [Compound 107, 4-{4-[3-(5-tert-butyl-2H-pyrazol-3-yl)-ureido]-2-isopropyl-phenoxy}-7-methoxy-quinolin-6-carboxamide]	–	–	–	–	–	–	–	–	0.263	> 1	0.341	0.345	> 1	0.759	0.0504	0.589
